Laboratory results published in patent publication US20230346952A1, “CANNABINOID GLYCOSIDE PRODRUGS AND METHODS OF SYNTHESIS” (priority 2015, published 2023).

Tests used:
[1] = Rat plasma toxicokinetics post VB302 administration at 1,000 mg/kg; conditions: both, Sprague Dawley, po, 1000 mg/kg, AUC in plasma, post VB302 oral gavage 1,000 mg/kg, 1, 2, 6, 24 hours, label = analyte in plasma
[2] = Antimicrobial activity observed in phytocannabinoid glycosylation reaction mixtures; conditions: large-scale glycosylation reaction mixtures
[3] = target: T1, human cannabinoid receptor type 1 (CB1R) (Homo sapiens, UniProt P21554); format: binding; conditions: 10 µM test compound; 2.0 nanomolar [3H] SR141716A; human recombinant Chem-1 cells; 90 minutes at 37 C
T1 construct: expressed in transfected cells; host or cells: Chem-1 cells
T1 sequence (P21554 whole entry): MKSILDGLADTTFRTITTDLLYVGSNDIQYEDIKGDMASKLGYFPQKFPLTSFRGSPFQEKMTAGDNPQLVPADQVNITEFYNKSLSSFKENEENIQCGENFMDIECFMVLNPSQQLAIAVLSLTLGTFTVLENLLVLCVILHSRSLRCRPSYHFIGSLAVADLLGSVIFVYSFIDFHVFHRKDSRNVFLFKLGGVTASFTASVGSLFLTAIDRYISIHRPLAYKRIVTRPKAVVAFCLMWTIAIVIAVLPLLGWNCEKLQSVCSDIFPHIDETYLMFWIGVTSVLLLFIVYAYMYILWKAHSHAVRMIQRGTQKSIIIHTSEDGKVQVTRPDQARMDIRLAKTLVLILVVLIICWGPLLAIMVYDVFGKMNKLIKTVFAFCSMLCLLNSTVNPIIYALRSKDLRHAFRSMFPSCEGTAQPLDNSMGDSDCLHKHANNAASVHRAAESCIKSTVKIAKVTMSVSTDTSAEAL

[4] = target: safety screen panel of human pharmacological targets (Homo sapiens, UniProt P21554); assay: biochemical; conditions: read-out: percent inhibition: CB1 (h) (agonist radioligand)
Chain of safety screen panel of human pharmacological targets (P21554 whole entry): as above

[5] = test system: Vinotaste Pro (Novozymes); assay: In vitro digestion with Vinotaste Pro; conditions: same digestion conditions as for Lallzyme Beta; HPLC
glycoside hydrolases = assay: In vitro digestion screening with commercially available glycoside hydrolases (Table K); conditions: Enzyme 1 of Table K

Compound | AUC [1] [ng·h/mL] | antimicrobial activity [2] | percent displacement of [3H] SR141716A at human CB1R [3] [%] | inhibition at 10 µM [4] [%] | digestion by Vinotaste Pro (extent / products) [5] | digestion by glycoside hydrolase (activity / product) (glycoside hydrolases)
CCCCCc1cc(O)c2c(c1)OC(C)(C)[C@@H]1CCC(C)=C[C@@H]21 [VB301, Δ9-Terahydrocannabinol, reference compound] | 72 | noticeable antimicrobial activity |  |  |  | 
CCCCCc1cc(O[C@@H]2O[C@H](CO)[C@@H](O)[C@H](O)[C@H]2O)c2c(c1)OC(C)(C)[C@@H]1CCC(C)=C[C@@H]21 [VB302, Δ9THC-1-O-glucopyranoside] | 167000 |  | -3 | -3 |  | 
CCCCCc1cc(O[C@@H]2O[C@H](CO[C@@H]3O[C@H](CO)[C@@H](O)[C@H](O)[C@H]3O)[C@@H](O[C@@H]3O[C@H](CO)[C@@H](O)[C@H](O)[C@H]3O)[C@H](O)[C@H]2O)c2c(c1)OC(C)(C)[C@@H]1CCC(C)=C[C@@H]21 [VB311] |  |  | 3 | 3 | capable of hydrolyzing | digests VB311 to V310
